According to patent US20020111274A1, “1-alkyl-3-[1-(substituted phenyl) benzotriazol-6-yl] uracils” (BASF Aktiengesellschaft, priority 2000, published 2002):

How the values were obtained:
Set-up in all cases: scale not given here
Details in all cases: postemergence spray, rated about two-three weeks after treatment
ABUTH Velvetleaf = test: Postemergence herbicidal evaluation, ABUTH; format: in vivo, Abutilon theophrasti, Medic.
Method in brief: (§1)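 Two-week-old seedlings sprayed postemergence with compound in 80/20 acetone/water plus 1.0% methylated seed oil, at about 0.006–0.400 kg/ha, through a nozzle at 40 psi. Plants kept under greenhouse conditions and visually rated about two–three weeks after treatment; ratings from repeat tests averaged.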

AMBEL Ragweed, Common = test: Postemergence herbicidal evaluation, AMBEL; format: in vivo, Ambrosia artemisifolia, L.
Method in brief: as §1

CASOB Sicklepod = test: Postemergence herbicidal evaluation, CASOB; format: in vivo, Cassia obtusifolia, L.
Method in brief: as §1

[1] = tested on: CHEAL Lambsquarters, Common; test: Postemergence herbicidal evaluation, CHEAL; format: in vivo, Chenopodium album, L.
Method in brief: as §1

ECHOG Barnyardgrass = test: Postemergence herbicidal evaluation, ECHOG; format: in vivo, Echinochloa crus-galli, (L.) Beau
Method in brief: as §1

GALAP Galium = test: Postemergence herbicidal evaluation, GALAP; format: in vivo, Galium aparine
Method in brief: as §1

[2] = tested on: IPOHE Morningglory, Ivyleaf; test: Postemergence herbicidal evaluation, IPOHE; format: in vivo, Ipomoea hederacea, (L.) Jacq.
Method in brief: as §1

SETVI Foxtail, Green = test: Postemergence herbicidal evaluation, SETVI; format: in vivo, Setaria viridis, (L.) Beau
Method in brief: as §1

GLXMAW Soybean, Williams = test: Postemergence herbicidal evaluation, GLXMAW; format: in vivo, Glycine max, (L.) Merr. cv Williams
Method in brief: as §1

[3] = tested on: TRZAWR Wheat, Winter, cv Riband; test: Postemergence herbicidal evaluation, TRZAWR; format: in vivo, Triticum aestivum
Method in brief: as §1

ORYSAT Rice, Tebonnet = test: Postemergence herbicidal evaluation, ORYSAT; format: in vivo, Oryza sativa, (L.)
Method in brief: as §1

ZEAMX Corn, Field = test: Postemergence herbicidal evaluation, ZEAMX; format: in vivo, Zea mays, L. (Sammel-Bezeichnung)
Method in brief: as §1

Compound: COC(=O)C(C)Oc1ccc(C)cc1-n1nnc2cc(F)c(-n3c(=O)cc(C(F)(F)F)n(C)c3=O)cc21 (centres unmarked) [Example 41]
- Postemergence herbicidal rating ABUTH (ABUTH Velvetleaf; 0.008 kg/ha): 9.0
- Postemergence herbicidal rating ABUTH (ABUTH Velvetleaf; 0.016 kg/ha): 9.0
- Postemergence herbicidal rating ABUTH (ABUTH Velvetleaf; 0.032 kg/ha): 9.0
- Postemergence herbicidal rating ABUTH (ABUTH Velvetleaf; 0.062 kg/ha): 9.0
- Postemergence herbicidal rating AMBEL (AMBEL Ragweed, Common; 0.008 kg/ha): 7.0
- Postemergence herbicidal rating AMBEL (AMBEL Ragweed, Common; 0.016 kg/ha): 9.0
- Postemergence herbicidal rating AMBEL (AMBEL Ragweed, Common; 0.032 kg/ha): 9.0
- Postemergence herbicidal rating AMBEL (AMBEL Ragweed, Common; 0.062 kg/ha): 9.0
- Postemergence herbicidal rating CASOB (CASOB Sicklepod; 0.008 kg/ha): 1.0
- Postemergence herbicidal rating CASOB (CASOB Sicklepod; 0.016 kg/ha): 3.0
- Postemergence herbicidal rating CASOB (CASOB Sicklepod; 0.032 kg/ha): 4.0
- Postemergence herbicidal rating CASOB (CASOB Sicklepod; 0.062 kg/ha): 9.0
- Postemergence herbicidal rating CHEAL ([1]; 0.008 kg/ha): 2.0
- Postemergence herbicidal rating CHEAL ([1]; 0.016 kg/ha): 2.0
- Postemergence herbicidal rating CHEAL ([1]; 0.032 kg/ha): 4.0
- Postemergence herbicidal rating CHEAL ([1]; 0.062 kg/ha): 5.0
- Postemergence herbicidal rating ECHCG (ECHOG Barnyardgrass; 0.008 kg/ha): 6.
- Postemergence herbicidal rating ECHCG (ECHOG Barnyardgrass; 0.016 kg/ha): 9.0
- Postemergence herbicidal rating ECHCG (ECHOG Barnyardgrass; 0.032 kg/ha): 9.0
- Postemergence herbicidal rating ECHCG (ECHOG Barnyardgrass; 0.062 kg/ha): 9.0
- Postemergence herbicidal rating GALAP (GALAP Galium; 0.008 kg/ha): 0.0
- Postemergence herbicidal rating GALAP (GALAP Galium; 0.016 kg/ha): 1.0
- Postemergence herbicidal rating GALAP (GALAP Galium; 0.032 kg/ha): 3.0
- Postemergence herbicidal rating GALAP (GALAP Galium; 0.062 kg/ha): 3.0
- Postemergence herbicidal rating IPOHE ([2]; 0.008 kg/ha): 9.0
- Postemergence herbicidal rating IPOHE ([2]; 0.016 kg/ha): 9.0
- Postemergence herbicidal rating IPOHE ([2]; 0.032 kg/ha): 9.0
- Postemergence herbicidal rating IPOHE ([2]; 0.062 kg/ha): 9.0
- Postemergence herbicidal rating SETVI (SETVI Foxtail, Green; 0.008 kg/ha): 7.0
- Postemergence herbicidal rating SETVI (SETVI Foxtail, Green; 0.016 kg/ha): 9.0
- Postemergence herbicidal rating SETVI (SETVI Foxtail, Green; 0.032 kg/ha): 9.0
- Postemergence herbicidal rating SETVI (SETVI Foxtail, Green; 0.062 kg/ha): 9.0
- Postemergence herbicidal rating GLXMAW (GLXMAW Soybean, Williams; 0.008 kg/ha): 5.5
- Postemergence herbicidal rating GLXMAW (GLXMAW Soybean, Williams; 0.016 kg/ha): 7.5
- Postemergence herbicidal rating GLXMAW (GLXMAW Soybean, Williams; 0.032 kg/ha): 8.0
- Postemergence herbicidal rating GLXMAW (GLXMAW Soybean, Williams; 0.062 kg/ha): 8.0
- Postemergence herbicidal rating TRZAWR ([3]; 0.008 kg/ha): 6.0
- Postemergence herbicidal rating TRZAWR ([3]; 0.016 kg/ha): 7.0
- Postemergence herbicidal rating TRZAWR ([3]; 0.032 kg/ha): 8.0
- Postemergence herbicidal rating TRZAWR ([3]; 0.062 kg/ha): 8.0
- Postemergence herbicidal rating ORYSAT (ORYSAT Rice, Tebonnet; 0.008 kg/ha): 1.5
- Postemergence herbicidal rating ORYSAT (ORYSAT Rice, Tebonnet; 0.016 kg/ha): 2.5
- Postemergence herbicidal rating ORYSAT (ORYSAT Rice, Tebonnet; 0.032 kg/ha): 7.0
- Postemergence herbicidal rating ORYSAT (ORYSAT Rice, Tebonnet; 0.062 kg/ha): 8.0
- Postemergence herbicidal rating ZEAMX (ZEAMX Corn, Field; 0.008 kg/ha): 6.5
- Postemergence herbicidal rating ZEAMX (ZEAMX Corn, Field; 0.016 kg/ha): 8.0
- Postemergence herbicidal rating ZEAMX (ZEAMX Corn, Field; 0.032 kg/ha): 8.0
